The nature of this data set: Water solubility, HPLC with external standard. Format: physicochemical.

What is called solubility is how much of the substance goes into solution per volume. High values mean much dissolved substance, low ones little dissolved substance.

Converted amounts (≈) assume the structure as drawn.

In turn, `COc1ccc2cccc(CCNC(C)=O)c2c1` [Agomelatine, N-[2-(7-methoxy-1-naphthyl)ethyl]-acetamide] displayed a solubility of 1110 µg/mL (≈ 4.56 mM).
